Laboratory results as given in patent US8026257B2 (Bristol-Myers Squibb Company, priority 2007, dated 2011).
Structures can show the parent of a compound that is named as a salt.

Experiments:
NK-1 = target: T1, NK-1 (Homo sapiens, UniProt P25103); assay: NK1 radioligand binding assay ([125I]Substance P, U373 membranes); details: U373 cell membranes, 200 pM [125I]Substance P, 1 hour at room temperature
T1 construct: 30 ul/well of a 2×U373 membrane preparation
How it was run: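 U373 cell membranes incubated 1 h at room temperature with [125I]Substance P at its Kd (added as 400 pM 2× solution) in Tris-Cl pH 7.5 with MgCl2, BSA, bacitracin and protease inhibitors. Bound radioligand collected on PEI-treated GF/B filters and counted. IC50 from four-parameter fit of triplicates; L-733,060 defined 100% inhibition.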

hSERT = hSERT (Homo sapiens, UniProt P31645); assay: SERT radioligand binding assay ([125I]RTI-55, HEK-hSERT membranes); details: HEK-293 hSERT membranes, 260 pM [125I]RTI-55, 1 hour at room temperature; read-out: SERT IC50
hSERT, sequence (P31645 whole entry): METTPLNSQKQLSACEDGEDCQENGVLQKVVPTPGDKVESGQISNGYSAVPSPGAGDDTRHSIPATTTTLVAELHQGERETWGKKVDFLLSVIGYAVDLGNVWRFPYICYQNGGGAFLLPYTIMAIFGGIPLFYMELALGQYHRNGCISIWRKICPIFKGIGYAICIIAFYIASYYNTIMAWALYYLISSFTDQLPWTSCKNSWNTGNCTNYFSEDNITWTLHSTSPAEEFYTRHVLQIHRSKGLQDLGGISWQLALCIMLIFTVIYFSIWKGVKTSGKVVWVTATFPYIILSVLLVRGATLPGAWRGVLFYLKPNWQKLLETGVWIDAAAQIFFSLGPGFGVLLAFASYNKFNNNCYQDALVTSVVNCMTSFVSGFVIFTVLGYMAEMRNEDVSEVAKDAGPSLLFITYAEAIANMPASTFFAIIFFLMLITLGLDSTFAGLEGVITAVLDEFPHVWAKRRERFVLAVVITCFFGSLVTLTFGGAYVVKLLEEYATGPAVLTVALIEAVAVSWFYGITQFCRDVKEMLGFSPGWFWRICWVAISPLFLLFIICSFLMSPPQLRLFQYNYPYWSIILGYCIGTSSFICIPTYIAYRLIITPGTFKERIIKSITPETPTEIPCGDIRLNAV
How it was run: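 Crude membranes from HEK-293 cells expressing hSERT (15 ug/ml, 2× stock) were incubated 1 hour at room temperature with [125I]RTI-55 (520 pM, 2× stock; at Kd) in pH 7.5 Tris, 120 mM NaCl, 5 mM KCl. Bound ligand was collected by GF/B filtration and scintillation counted. IC50 came from four-parameter fit, fluoxetine defining 100% inhibition.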

T1 sequence (P25103 whole entry): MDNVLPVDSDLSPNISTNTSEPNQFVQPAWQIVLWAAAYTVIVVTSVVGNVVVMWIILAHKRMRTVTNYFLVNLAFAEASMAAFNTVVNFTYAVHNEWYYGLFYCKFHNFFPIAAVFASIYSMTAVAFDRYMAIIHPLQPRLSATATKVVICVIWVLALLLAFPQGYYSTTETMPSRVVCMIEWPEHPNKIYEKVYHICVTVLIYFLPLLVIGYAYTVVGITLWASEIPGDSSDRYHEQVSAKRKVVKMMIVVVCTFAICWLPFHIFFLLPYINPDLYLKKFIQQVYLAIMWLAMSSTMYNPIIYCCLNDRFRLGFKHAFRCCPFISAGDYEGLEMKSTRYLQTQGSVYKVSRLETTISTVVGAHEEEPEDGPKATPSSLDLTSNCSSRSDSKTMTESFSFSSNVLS

| SMILES | IC50 (NK-1) [nM] | IC50 (hSERT) [nM] |
| --- | --- | --- |
| CN1CCC(COCc2cc(C(F)(F)F)cc3nn(C)nc23)(c2ccc(F)cc2)CC1 [Example 79, 4-(((4-(4-Fluorophenyl)-1-methylpiperidin-4-yl)methoxy)methyl)-2-methyl-6-(trifluoromethyl)-2H-benzo[d][1,2,3]triazole] | 0.01 to 100 | 0.01 to 100 |
| CN1CCC(COCc2cc(C(F)(F)F)cc3c2nnn3C)(c2ccc(F)cc2)CC1 [Example 80, 4-(((4-(4-Fluorophenyl)-1-methylpiperidin-4-yl)methoxy)methyl)-1-methyl-6-(trifluoromethyl)-1H-benzo[d][1,2,3]triazole] | 100 to 300 | 0.01 to 100 |
| CN1CCC(COCc2nc3cc(-c4ccc(C#N)cc4)ccc3n2CC2CC2)(c2ccccc2)CC1 [Example 81, 4-(1-(Cyclopropylmethyl)-2-(((1-methyl-4-phenylpiperidin-4-yl)methoxy)methyl)-1H-benzo[d]imidazol-5-yl)benzonitrile] | > 300 | 0.01 to 100 |
| CN1CCC(COCc2nc3cc(Br)ccc3n2CC2CC2)(c2ccccc2)CC1 [Example 82, 5-Bromo-1-(cyclopropylmethyl)-2-(((1-methyl-4-phenylpiperidin-4-yl)methoxy)methyl)-1H-benzo[d]imidazole] | > 300 | 0.01 to 100 |
| CN1CCC(COCc2nc3ccc(Br)cc3n2CC2CC2)(c2ccccc2)CC1 [Example 83, 6-Bromo-1-(cyclopropylmethyl)-2-(((1-methyl-4-phenylpiperidin-4-yl)methoxy)methyl)-1H-benzo[d]imidazole] | > 300 | 0.01 to 100 |
| CN1CCC(COCc2nc3cc(-c4ccc(Cl)cc4Cl)ccc3n2CC2CC2)(c2ccccc2)CC1 [Example 84, 1-(Cyclopropylmethyl)-5-(2,4-dichlorophenyl)-2-(((1-methyl-4-phenylpiperidin-4-yl)methoxy)methyl)-1H-benzo[d]imidazole] | > 300 | 0.01 to 100 |
| CN1CCC(COCc2nc3ccc(C4CC4)cc3n2CC2CC2)(c2ccccc2)CC1 [Example 85, 6-Cyclopropyl-1-(cyclopropylmethyl)-2-(((1-methyl-4-phenylpiperidin-4-yl)methoxy)methyl)-1H-benzo[d]imidazole] | > 300 | 0.01 to 100 |
| CN1CCC(COCc2nc3cc(C(F)(F)F)ccc3n2CC2CC2)(c2ccccc2)CC1 [Example 86, 1-(Cyclopropylmethyl)-2-(((1-methyl-4-phenylpiperidin-4-yl)methoxy)methyl)-5-(trifluoromethyl)-1H-benzo[d]imidazole] | > 300 | 0.01 to 100 |
| CN1CCC(COCc2nc3ccc(C(F)(F)F)cc3n2CC2CC2)(c2ccccc2)CC1 [Example 87, 1-(Cyclopropylmethyl)-2-(((1-methyl-4-phenylpiperidin-4-yl)methoxy)methyl)-6-(trifluoromethyl)-1H-benzo[d]imidazole] | > 300 | 0.01 to 100 |
| COC(=O)C(OCC1(c2ccc(F)cc2)CCN(C)CC1)c1cc(Cl)cc2cn[nH]c12 (stereo not drawn) [Example 89, Methyl 2-(5-chloro-1H-indazol-7-yl)-2-((4-(4-fluorophenyl)-1-methylpiperidin-4-yl)methoxy)acetate trifluoroacetic acid salt] | > 300 | 0.01 to 100 |
| CN1CCC(COC(C(=O)O)c2cc(Cl)cc3cn[nH]c23)(c2ccc(F)cc2)CC1 (stereo not drawn) [Example 90, 2-(5-Chloro-1H-indazol-7-yl)-2-((4-(4-fluorophenyl)-1-methylpiperidin-4-yl)methoxy)acetic acid trifluoroacetic acid salt] | > 300 | 0.01 to 100 |
| CN1CCC(COC(C(=O)N(C)C)c2cc(Cl)cc3cn[nH]c23)(c2ccc(F)cc2)CC1 (stereo not drawn) [Example 91, 2-(5-Chloro-1H-indazol-7-yl)-2-((4-(4-fluorophenyl)-1-methylpiperidin-4-yl)methoxy)-N,N-dimethylacetamide trifluoroacetic acid salt] | > 300 | 0.01 to 100 |
| CN1CCC(COC(CO)c2cc(Cl)cc3cn[nH]c23)(c2ccc(F)cc2)CC1 (stereo not drawn) [Example 92, 2-(5-Chloro-1H-indazol-7-yl)-2-((4-(4-fluorophenyl)-1-methylpiperidin-4-yl)methoxy)ethanol trifluoroacetic acid salt] | 0.01 to 100 | 0.01 to 100 |
| COCC(OCC1(c2ccc(F)cc2)CCN(C)CC1)c1cc(Cl)cc2cn[nH]c12 (stereo not drawn) [Example 93, 5-Chloro-7-(1-((4-(4-fluorophenyl)-1-methylpiperidin-4-yl)methoxy)-2-methoxyethyl)-1H-indazole trifluoroacetic acid salt] | 0.01 to 100 | 0.01 to 100 |
| CN1CCC(COC(CF)c2cc(Cl)cc3cn[nH]c23)(c2ccc(F)cc2)CC1 (stereo not drawn) [Example 94, 5-Chloro-7-(2-fluoro-1-((4-(4-fluorophenyl)-1-methylpiperidin-4-yl)methoxy)ethyl)-1H-indazole] | 0.01 to 100 | 0.01 to 100 |
| CN1CCC(COC(C#N)c2cc(Cl)cc3cn[nH]c23)(c2ccc(F)cc2)CC1 (stereo not drawn) [Example 95, 2-(5-Chloro-1H-indazol-7-yl)-2-((4-(4-fluorophenyl)-1-methylpiperidin-4-yl)methoxy)acetonitrile] | 0.01 to 100 | 0.01 to 100 |
| CC(OCC1(c2ccc(F)cc2)CCN(C)CC1)c1cc(Cl)cc2[nH]c(=O)[nH]c12 (stereo not drawn) [Example 96, 6-Chloro-4-(1-((4-(4-fluorophenyl)-1-methylpiperidin-4-yl)methoxy)ethyl)-1H-benzo[d]imidazol-2(3H)-one trifluoroacetic acid salt] | 100 to 300 | 0.01 to 100 |
| CC(OCC1(c2ccc(F)cc2)CCN(C)CC1)c1cc(Cl)cc2[nH]c(=O)n(C)c12 (stereo not drawn) [Example 97, 5-Chloro-7-(1-((4-(4-fluorophenyl)-1-methylpiperidin-4-yl)methoxy)ethyl)-1-methyl-1H-benzo[d]imidazol-2(3H)-one trifluoroacetic acid salt] | 100 to 300 | 0.01 to 100 |
| CC(OCC1(c2ccc(F)cc2)CCN(C)CC1)c1cc(Cl)cc2c1[nH]c(=O)n2C (stereo not drawn) [Example 98, 6-Chloro-4-(1-((4-(4-fluorophenyl)-1-methylpiperidin-4-yl)methoxy)ethyl)-1-methyl-1H-benzo[d]imidazol-2(3H)-one trifluoroacetic acid salt] | 0.01 to 100 | 0.01 to 100 |
| C[C@@H](OCC1(c2ccc(F)cc2)CCNCC1)c1cc(Cl)cc2c(Cl)n[nH]c12 [Example 99, (R)-3,5-Dichloro-7-(1-((4-(4-fluorophenyl)piperidin-4-yl)methoxy)ethyl)-1H-indazole] | 0.01 to 100 | 0.01 to 100 |
| C[C@@H](OCC1(c2ccc(F)cc2)CCN(C)CC1)c1cc(Cl)cc2c(Cl)n[nH]c12 [Example 100, (R)-3,5-Dichloro-7-(1-((4-(4-fluorophenyl)-1-methylpiperidin-4-yl)methoxy)ethyl)-1H-indazole] | 0.01 to 100 | 0.01 to 100 |
| C[C@@H](OCC1(c2ccc(F)cc2)CCNCC1)c1cc(Br)cc2c(Br)n[nH]c12 [Example 101, (R)-3,5-Dibromo-7-(1-((4-(4-fluorophenyl)piperidin-4-yl)methoxy)ethyl)-1H-indazole] | 0.01 to 100 | 0.01 to 100 |
| C[C@@H](OCC1(c2ccc(F)cc2)CCN(C)CC1)c1cc(Br)cc2c(Br)n[nH]c12 [Example 102, (R)-3,5-Dibromo-7-(1-((4-(4-fluorophenyl)-1-methylpiperidin-4-yl)methoxy)ethyl)-1H-indazole] | 0.01 to 100 | 0.01 to 100 |
| Cc1n[nH]c2c([C@@H](C)OCC3(c4ccc(F)cc4)CCN(C)CC3)cc(Cl)cc12 [Example 103, (R)-5-Chloro-7-(1-((4-(4-fluorophenyl)-1-methylpiperidin-4-yl)methoxy)ethyl)-3-methyl-1H-indazole] | 0.01 to 100 | 0.01 to 100 |
| C[C@@H](OCC1(c2ccc(F)cc2)CCNCC1)c1cc(Cl)cc2cn(CC3CC3)nc12 [Example 104] | 0.01 to 100 | 0.01 to 100 |
| C[C@@H](OCC1(c2ccc(F)cc2)CCN(C)CC1)c1cc(Cl)cc2cn(CC3CC3)nc12 [Example 105, (R)-5-chloro-2-(cyclopropylmethyl)-7-(1-((4-(4-fluorophenyl)-1methylpiperidin-4-yl)methoxy)ethyl)-2H-indazole] | 0.01 to 100 | 0.01 to 100 |
| C[C@@H](OCC1(c2ccc(F)cc2)CCN(C)CC1)c1cc(Cl)cc2cnn(CC3CC3)c12 [Example 106, (R)-5-chloro-1-(cyclopropylmethyl)-7-(1-((4-(4-fluorophenyl)-1methylpiperidin-4-yl)methoxy)ethyl)-1H-indazole] | 0.01 to 100 | 0.01 to 100 |
| C[C@@H](OCC1(c2ccc(F)cc2)CCN(C)CC1)c1cc(Cl)cc2cn(CC#N)nc12 [Example 107, (R)-2-(5-chloro-7-(1-((4-(4-fluorophenyl)-1-methylpiperidine-4-yl)methoxy)ethyl)-2H-indazole-2-yl)acetonitrile] | 0.01 to 100 | 0.01 to 100 |
| C[C@@H](OCC1(c2ccc(F)cc2)CCN(C)CC1)c1cc(Cl)cc2cnn(CC#N)c12 [Example 108] | 0.01 to 100 | 0.01 to 100 |
| CN1CCC(CO[C@H](CF)c2cc(Cl)cc3c(Cl)n[nH]c23)(c2ccc(F)cc2)CC1 [Example 109, (S)-3,5-dichloro-7-(2-fluoro-1-((4-(4-fluorophenyl)-1-methylpiperidine-4-yl)methoxy)ethyl)-1H-indazole] | 0.01 to 100 | 0.01 to 100 |
